Measurements as given in patent publication US8247211B2, “Glycopeptide antibiotics” (American Cyanamid Company, priority 2001, dated 2012).
In brackets after ≈: the same amount, converted by molar mass.

How the values were obtained:
Assay in all cases: In vitro antibacterial evaluation: minimum inhibitory concentration (MIC), broth dilution method
Format in all cases: cell-based
Enterococcus sp. = conditions: broth dilution, 5×10^5 CFU/mL, 18 hours at 35° C.
Protocol: (§1) The minimum inhibitory concentration (MIC), the lowest concentration of the antibiotic which inhibits growth of the test organism, is determined by the broth dilution method using Muller-Hinton II […] (Baltimore Biological Laboratories) following the recommendations of the National Committee for Clinical Laboratory Standards [Methods for dilution antimicrobial susceptibility tests for bacteria that grow aerobically, approved standard M7-A2, National Committee for Clinical Laboratory Standards, Villanova, Pa].
(§2) An inoculum level of 5×10^5 CFU/mL, and a range of antibiotic concentrations (64-0.06 μg/mL) is used. […] The test organisms include a spectrum of Gram-positive bacteria comprised of Staphylococcus sp., Streptococcus sp. and Enterococcus sp. These organisms include recent clinical isolates that are resistant to methicillin, penicillin and/or vancomycin.

Streptococcus sp. = conditions: broth dilution, 5×10^5 CFU/mL, 18 hours at 35° C.
Protocol: as §1, §2

Escherichia coli = conditions: 5×10^5 CFU/mL, 18 hours at 35° C.
Protocol: as §1, §2

Staphylococcus sp. = conditions: for MIC Staphylococcus aureus (ATCC 29213): strain ATCC 29213; for MIC Staphylococcus aureus (GC 1131): strain GC 1131; for MIC Staphylococcus aureus (GC 3051): strain GC 3051; for MIC Staphylococcus aureus (GC 3053): strain GC 3053; for MIC Staphylococcus aureus (GC 4541): strain GC 4541; for MIC Staphylococcus aureus (GC 4542): strain GC 4542; for MIC Staphylococcus aureus-SMITH (GC 4543): strain GC 4543; for MIC Staphylococcus aureus (GC 4544): strain GC 4544; for MIC Staphylococcus aureus (GC 4545): strain GC 4545; for MIC Staphylococcus haemolyticus (GC 4546): strain GC 4546; for MIC Coagulase Negative Staphylococcus (GC 4547): strain GC 4547; for MIC Coagulase Negative Staphylococcus (GC 4548): strain GC 4548; for MIC Coagulase Negative Staphylococcus (GC 4549): strain GC 4549; for MIC Coagulase Negative Staphylococcus (GC 4551): strain GC 4551; for MIC Coagulase Negative Staphylococcus (GC 6257): strain GC 6257
Protocol: as §1, §2

[1] = broth dilution, 18 hours at 35° C.

MIC Enterococccus avium (GC 4558) (Enterococcus sp.): 0.25 µg/mL (≈ 0.177 µM)
MIC Enterococccus faecalis (ATCC 29212) (Enterococcus sp.): 4 µg/mL (≈ 2.83 µM)
MIC Enterococccus faecalis (GC 2691) (Enterococcus sp.): 4 µg/mL (≈ 2.83 µM)
MIC Enterococccus faecalis (GC 3059) (Enterococcus sp.): 4 µg/mL (≈ 2.83 µM)
MIC Enterococccus faecalis (GC 4552) (Enterococcus sp.): 4 µg/mL (≈ 2.83 µM)
MIC Enterococccus faecalis (GC 4553) (Enterococcus sp.): 4 µg/mL (≈ 2.83 µM)
MIC Enterococccus faecalis (GC 4554) (Enterococcus sp.): 4 µg/mL (≈ 2.83 µM)
MIC Enterococccus faecalis (GC 6189) (Enterococcus sp.): 4 µg/mL (≈ 2.83 µM)
MIC Enterococccus faecium (GC 2243) (Enterococcus sp.): 4 µg/mL (≈ 2.83 µM)
MIC Enterococccus faecium (GC 4556) (Enterococcus sp.): 4 µg/mL (≈ 2.83 µM)
MIC Enterococccus faecium (GC 4557) (Enterococcus sp.): 1 µg/mL (≈ 0.708 µM)
MIC Enterococcus faecalis (GC 2242) (Enterococcus sp.): 4 µg/mL (≈ 2.83 µM)
MIC Streptococcus agalactiae (GC 4564) (Streptococcus sp.): 1 µg/mL (≈ 0.708 µM)
MIC Streptococcus pneumoniae (GC 1894) (Streptococcus sp.): <0.06 µg/mL
MIC Streptococcus pneumoniae (GC 4565) (Streptococcus sp.): <0.06 µg/mL
MIC Streptococcus pneumonine (ATCC 6301) (Streptococcus sp.): <0.06 µg/mL
MIC Streptococcus pyogenes (GC 4563) (Streptococcus sp.): 0.12 µg/mL (≈ 0.085 µM)
MIC Escherichia coli (ATCC 25922) (Escherichia coli): 32 µg/mL (≈ 22.7 µM)
MIC Escherichia coli (GC 4559) (Escherichia coli): 32 µg/mL (≈ 22.7 µM)
MIC Escherichia coli (GC 4560) (Escherichia coli): 1 µg/mL (≈ 0.708 µM)
MIC Staphylococcus aureus (ATCC 29213) (Staphylococcus sp.): 2 µg/mL (≈ 1.42 µM)
MIC Staphylococcus aureus (ATCC 29213) (Staphylococcus sp.; [1]): 2 µg/mL (≈ 1.42 µM)
MIC Staphylococcus aureus (GC 1131) (Staphylococcus sp.): 2 µg/mL (≈ 1.42 µM)
MIC Staphylococcus aureus (GC 1131) (Staphylococcus sp.; [1]): 2 µg/mL (≈ 1.42 µM)
MIC Staphylococcus aureus (GC 3051) (Staphylococcus sp.): 2 µg/mL (≈ 1.42 µM)
MIC Staphylococcus aureus (GC 3051) (Staphylococcus sp.; [1]): 2 µg/mL (≈ 1.42 µM)
MIC Staphylococcus aureus (GC 3053) (Staphylococcus sp.): 2 µg/mL (≈ 1.42 µM)
MIC Staphylococcus aureus (GC 3053) (Staphylococcus sp.; [1]): 2 µg/mL (≈ 1.42 µM)
MIC Staphylococcus aureus (GC 4541) (Staphylococcus sp.): 2 µg/mL (≈ 1.42 µM)
MIC Staphylococcus aureus (GC 4541) (Staphylococcus sp.; [1]): 2 µg/mL (≈ 1.42 µM)
MIC Staphylococcus aureus (GC 4542) (Staphylococcus sp.): 1 µg/mL (≈ 0.708 µM)
MIC Staphylococcus aureus (GC 4542) (Staphylococcus sp.; [1]): 1 µg/mL (≈ 0.708 µM)
MIC Staphylococcus aureus-SMITH (GC 4543) (Staphylococcus sp.; 18 hours at 35° C.): 2 µg/mL (≈ 1.42 µM)
MIC Staphylococcus aureus-SMITH (GC 4543) (Staphylococcus sp.; [1]): 2 µg/mL (≈ 1.42 µM)
MIC Staphylococcus aureus (GC 4544) (Staphylococcus sp.): 2 µg/mL (≈ 1.42 µM)
MIC Staphylococcus aureus (GC 4544) (Staphylococcus sp.; [1]): 2 µg/mL (≈ 1.42 µM)
MIC Staphylococcus aureus (GC 4545) (Staphylococcus sp.): 2 µg/mL (≈ 1.42 µM)
MIC Staphylococcus aureus (GC 4545) (Staphylococcus sp.; [1]): 2 µg/mL (≈ 1.42 µM)
MIC Coagulase Negative Staphylococcus (GC 4547) (Staphylococcus sp.): 2 µg/mL (≈ 1.42 µM)
MIC Coagulase Negative Staphylococcus (GC 4547) (Staphylococcus sp.; [1]): 2 µg/mL (≈ 1.42 µM)
MIC Coagulase Negative Staphylococcus (GC 4548) (Staphylococcus sp.): 1 µg/mL (≈ 0.708 µM)
MIC Coagulase Negative Staphylococcus (GC 4548) (Staphylococcus sp.; [1]): 1 µg/mL (≈ 0.708 µM)
MIC Coagulase Negative Staphylococcus (GC 4549) (Staphylococcus sp.): 1 µg/mL (≈ 0.708 µM)
MIC Coagulase Negative Staphylococcus (GC 4549) (Staphylococcus sp.; [1]): 1 µg/mL (≈ 0.708 µM)
MIC Coagulase Negative Staphylococcus (GC 4551) (Staphylococcus sp.): 2 µg/mL (≈ 1.42 µM)
MIC Coagulase Negative Staphylococcus (GC 4551) (Staphylococcus sp.; [1]): 2 µg/mL (≈ 1.42 µM)
MIC Coagulase Negative Staphylococcus (GC 6257) (Staphylococcus sp.): 1 µg/mL (≈ 0.708 µM)
MIC Coagulase Negative Staphylococcus (GC 6257) (Staphylococcus sp.; [1]): 1 µg/mL (≈ 0.708 µM)
SMILES: CC(c1ccccc1)C1NC(=O)CNC(=O)C(CO)NC(=O)C(C(O)C2CNC(=N)N2C2OC(CO)C(O)C(O)C2O)NC(=O)C(C(O)C2CNC(=N)N2)NC(=O)C(Cc2ccc(OC3OC(CO)C(OC4OC5COC(CCc6ccccc6)OC5C(O)C4O)C(O)C3O)cc2)NC1=O (centres unmarked) [Example 124]
MIC Staphylococcus haemolyticus (GC 4546) (Staphylococcus sp.): 2 µg/mL (≈ 1.42 µM)
MIC Staphylococcus haemolyticus (GC 4546) (Staphylococcus sp.; [1]): 2 µg/mL (≈ 1.42 µM)
